# Changes are numbered by the printed parent chain. Like-named read-outs stand apart in the source and are kept apart here.
# Key:
# purified human 3β-HSD1 [1] = target: T1, purified human 3β-HSD1 (Homo sapiens, UniProt P14060); test: Substrate and cofactor kinetics of the 3β-HSD activity; assay type: biochemical; conditions: 27°C, pH 7.4
# purified human 3β-HSD2 [2] = target: T2, purified human 3β-HSD2 (Homo sapiens, UniProt P26439); test: as above; assay type: biochemical; conditions: 27°C, pH 7.4
# T2 sequence (P26439 1-372): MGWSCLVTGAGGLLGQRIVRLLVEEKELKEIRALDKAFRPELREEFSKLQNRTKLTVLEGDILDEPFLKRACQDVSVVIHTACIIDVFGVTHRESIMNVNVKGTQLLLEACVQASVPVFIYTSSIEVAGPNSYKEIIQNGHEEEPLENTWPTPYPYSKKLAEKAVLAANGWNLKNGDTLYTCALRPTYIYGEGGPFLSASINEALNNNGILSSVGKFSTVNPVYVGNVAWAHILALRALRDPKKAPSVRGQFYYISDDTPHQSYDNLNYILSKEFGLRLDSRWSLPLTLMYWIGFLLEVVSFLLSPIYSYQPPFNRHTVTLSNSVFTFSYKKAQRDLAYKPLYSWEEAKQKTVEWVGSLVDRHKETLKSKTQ
# [3] = target: T3, purified human P195R-2 mutant of 3β-HSD2 (Homo sapiens, UniProt P26439, P195R); test: as above; assay type: biochemical
# T3 sequence (P26439 1-372 P195R): T2 sequence (P26439 1-372) with P195R
# purified human 3β-HSD1 [4] = target: T1, purified human 3β-HSD1; test: Substrate and cofactor kinetics of the isomerase activity; assay type: biochemical; conditions: 27°C, pH 7.4
# purified human 3β-HSD2 [5] = target: T2, purified human 3β-HSD2; test: as above; assay type: biochemical; conditions: 27°C, pH 7.4
# [6] = target: T3, purified human P195R-2 mutant of 3β-HSD2; test: as above; assay type: biochemical; conditions: 27°C, pH 7.4
# [7] = tested on: MCF-7 Tet-off 3β-HSD1 aromatase cells; test: Inhibition of DHEA-stimulated proliferation; assay type: cell-based, human; conditions: for fold higher affinity, 3β-HSD1 cells relative to 3β-HSD2 cells (IC50): ratio of proliferation IC50 values
# [8] = tested on: MCF-7 Tet-off 3β-HSD2 aromatase cells; test: Inhibition of DHEA-stimulated proliferation; assay type: cell-based, human; conditions: DHEA 5 nM, concentration-dependent
# [9] = tested on: MCF-7 Tet-off 3β-HSD1 aromatase cells; test: Stimulation of proliferation; assay type: cell-based, human; conditions: for stimulation of cell growth: no dox; for EC50: Homo sapiens, MCF7, 240 h, read-out: EC50, stimulation of growth
# [10] = tested on: MCF-7 Tet-off 3β-HSD1 and 3β-HSD2 aromatase cells; test: DHEA stimulation of proliferation, mean over both recombinant cell lines; assay type: cell-based; conditions: Homo sapiens, MCF7, read-out: mean EC50, stimulation of proliferation
# [11] = tested on: MCF-7 Tet-off 3β-HSD2 aromatase cells; test: Stimulation of proliferation; assay type: cell-based, human; conditions: for stimulation of cell growth: no dox; for EC50: Homo sapiens, MCF7, 240 h, read-out: EC50, stimulation of growth
# MCF-7 cells = test: Proliferation of MCF-7 cells in the absence of DHEA substrate; assay type: cell-based, human
# [12] = target: T3, purified human P195R-2 mutant of 3β-HSD2; test: Inhibition kinetics of purified enzyme; assay type: biochemical
# purified human 3β-HSD1 [13] = target: T1, purified human 3β-HSD1; test: Inhibition kinetics of purified enzyme; assay type: biochemical
# purified human 3β-HSD2 [14] = target: T2, purified human 3β-HSD2; test: Inhibition kinetics of purified enzyme; assay type: biochemical; conditions: for mode of inhibition: Dixon analysis
# [15] = read-out: Km, 3β-HSD cofactor, NAD+ 10–200 μM, DHEA 100 μM
# [16] = NADH 0–50 μM, 5-androstene-3,17-dione 100 μM
# [17] = read-out: Km, isomerase cofactor (allosteric activator), NADH 0–50 μM, 5-androstene-3,17-dione 100 μM
# [18] = DHEA 8.0 or 20.0 μM, NAD+ 0.2 mM, 27 °C, pH 7.4
# [19] = 5-androstene-3,17-dione 20–100 μM, NADH 0.05 mM
# T1 sequence (P14060 whole entry): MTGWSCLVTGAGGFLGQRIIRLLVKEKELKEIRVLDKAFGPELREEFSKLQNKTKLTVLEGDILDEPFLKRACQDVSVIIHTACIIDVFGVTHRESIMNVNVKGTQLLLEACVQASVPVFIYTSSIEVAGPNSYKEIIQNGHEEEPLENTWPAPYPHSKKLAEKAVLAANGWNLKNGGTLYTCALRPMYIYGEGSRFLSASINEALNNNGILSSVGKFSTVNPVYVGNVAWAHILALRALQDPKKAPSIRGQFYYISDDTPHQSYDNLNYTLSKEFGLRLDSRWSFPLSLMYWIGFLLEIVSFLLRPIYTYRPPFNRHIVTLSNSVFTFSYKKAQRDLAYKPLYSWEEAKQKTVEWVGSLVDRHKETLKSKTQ
molecule,measurement,setting,value
NC(=O)c1ccc[n+]([C@@H]2O[C@H](COP(=O)([O-])OP(=O)(O)OC[C@H]3O[C@@H](n4cnc5c(N)ncnc54)[C@H](O)[C@@H]3O)[C@@H](O)[C@H]2O)c1 [NAD^+],"kcat, 3β-HSD cofactor","purified human 3β-HSD1 [1]; NAD+ 10–200 μM, DHEA 100 μM",0.0583 ± 0.0033 s⁻¹
same,Km,purified human 3β-HSD1 [1]; [15],34.1 ± 1.7 µM
same,"kcat, 3β-HSD cofactor","purified human 3β-HSD2 [2]; NAD+ 10–200 μM, DHEA 100 μM",0.118 ± 0.01 s⁻¹
same,Km,purified human 3β-HSD2 [2]; [15],86.3 ± 5.6 µM
same,"kcat, 3β-HSD cofactor","[3]; NAD+ 10–200 μM, DHEA 100 μM, 27°C, pH 7.4",0.153 ± 0.005 s⁻¹
same,Km,"[3]; read-out: Km, 3β-HSD cofactor, NAD+ 10–200 μM, DHEA 100 μM, 27°C, pH 7.4",56.4 ± 3.2 µM
NC(=O)C1=CN([C@@H]2O[C@H](COP(=O)(O)OP(=O)(O)OC[C@H]3O[C@@H](n4cnc5c(N)ncnc54)[C@H](O)[C@@H]3O)[C@@H](O)[C@H]2O)C=CC1 [NADH],"kcat, isomerase cofactor (allosteric activator)",purified human 3β-HSD1 [4]; [16],0.75 ± 0.03 s⁻¹
same,Km,purified human 3β-HSD1 [4]; [17],4.6 ± 0.2 µM
same,"kcat, isomerase cofactor (allosteric activator)",purified human 3β-HSD2 [5]; [16],1.65 ± 0.107 s⁻¹
same,Km,purified human 3β-HSD2 [5]; [17],12.6 ± 0.9 µM
same,"kcat, isomerase cofactor (allosteric activator)",[6]; [16],1.49 ± 0.0967 s⁻¹
same,Km,[6]; [17],10 ± 0.2 µM
4-hydroxy-tamoxifen,effect on DHEA-stimulated proliferation,"[7]; DHEA 5 nM, concentration-dependent",decreases the DHEA-stimulated proliferation
same,effect on DHEA-stimulated proliferation,[8],decreases the DHEA-stimulated proliferation
"C[C@]12CC[C@H](O)CC1=CC[C@@H]1[C@@H]2CC[C@]2(C)C(=O)CC[C@@H]12 [DHEA, Dehydroepiandrosterone]",stimulation of cell growth,[9],stimulated
same,EC50,[10],5 nM
same,"kcat, 3β-HSD substrate","purified human 3β-HSD1 [1]; DHEA 2–100 μM, NAD+ 0.2 mM",0.055 ± 0.0033 s⁻¹
same,"kcat, 3β-HSD substrate","purified human 3β-HSD2 [2]; DHEA 2–100 μM, NAD+ 0.2 mM",0.115 ± 0.0083 s⁻¹
same,stimulation of cell growth,[11],stimulated
same,"kcat, 3β-HSD substrate","[3]; DHEA 2–100 μM, NAD+ 0.2 mM, 27°C, pH 7.4",0.158 ± 0.012 s⁻¹
same,"fold higher affinity for substrate, P195R-2 vs wild-type 3β-HSD2 (Km)",[3]; ratio of Km values,3.6 fold
same,Km,"[3]; read-out: Km, 3β-HSD substrate, DHEA 2–100 μM, NAD+ 0.2 mM, 27°C, pH 7.4",13.3 ± 2.5 µM
C[C@]1(O)CC[C@H]2[C@@H]3CC[C@@]45O[C@]4(C)C(O)=C(C#N)C[C@]5(C)[C@H]3CC[C@@]21C [epostane],ER-agonist activity (stimulation of proliferation),MCF-7 cells,none of these compounds has ER-agonist activity
same,"fold higher affinity, 3β-HSD1 cells relative to 3β-HSD2 cells (IC50)",[7],12 fold
"C[C@]12CC[C@H]3[C@@H](CC[C@@]45O[C@@H]4C(O)=C(C#N)C[C@]35C)[C@@H]1CC[C@@H]2O [trilostane, 2α-cyano-4α,5α-epoxy-17β-ol-androstane-3-one]",ER-agonist activity (stimulation of proliferation),MCF-7 cells,none of these compounds has ER-agonist activity
same,Ki,[12],190 ± 20 nM
same,Ki,purified human 3β-HSD1 [13],100 ± 10 nM
same,fold higher affinity for 3β-HSD1 than 3β-HSD2 (Ki),purified human 3β-HSD1 [13]; purified enzymes,16 fold
same,"fold higher affinity, 3β-HSD1 cells relative to 3β-HSD2 cells (IC50)",[7],16 fold
same,Ki,purified human 3β-HSD2 [14],1600 ± 100 nM
same,mode of inhibition,purified human 3β-HSD2 [14],noncompetitively
CC(=O)OC1CCC2C3CCC45OC4C(O)=C(C#N)CC5(C)C3CCC12C (stereo not drawn) [17β-acetoxy-trilostane],Ki,[12]; [18],390 ± 30 nM
same,Ki,"purified human 3β-HSD1 [13]; DHEA 4.0 or 8.0 μM, NAD+ 0.2 mM, 27 °C, pH 7.4",430 ± 30 nM
same,Ki,purified human 3β-HSD2 [14]; [18],1590 ± 100 nM
same,mode of inhibition,purified human 3β-HSD2 [14],non-competitive
C[C@]12CC[C@@H]3c4ccc(O)cc4CC[C@H]3[C@@H]1CCC2=O [estrone],EC50,[9],0.39 nM
same,EC50,[11],0.34 nM
"C[C@]12CCC(=O)CC1=CC[C@@H]1[C@@H]2CC[C@]2(C)C(=O)CC[C@@H]12 [5-androstene-3,17-dione]","kcat, isomerase substrate",purified human 3β-HSD1 [4]; [19],0.837 ± 0.0333 s⁻¹
same,"kcat, isomerase substrate",purified human 3β-HSD2 [5]; [19],1.36 ± 0.1 s⁻¹
same,"kcat, isomerase substrate",[6]; [19],2.18 ± 0.163 s⁻¹
same,Km,"[6]; read-out: Km, isomerase substrate, 5-androstene-3,17-dione 20–100 μM, NADH 0.05 mM",119 ± 5 µM
N#Cc1ccc(C(c2ccc(C#N)cc2)n2cncn2)cc1 [letrozole],ER-agonist activity (stimulation of proliferation),MCF-7 cells,none of these compounds has ER-agonist activity
"C[C@]12CC[C@H](OS(=O)(=O)O)CC1=CC[C@@H]1[C@@H]2CC[C@]2(C)C(=O)CC[C@@H]12 [DHEA-S, dehydroepiandrosterone-sulfate]",stimulation of cell growth,[9],stimulated
same,stimulation of cell growth,[11],stimulated
C[C@]12CC[C@@H]3c4ccc(O)cc4CC[C@H]3[C@@H]1CC[C@@H]2O [estradiol],EC50,[9],0.24 nM
same,EC50,[11],0.32 nM
"C[C@]12CCC(=O)C=C1CC[C@@H]1[C@@H]2CC[C@]2(C)C(=O)CC[C@@H]12 [Androstenedione, androstenedione]",stimulation of cell growth,[9],stimulates the proliferation
same,stimulation of cell growth,[11],stimulates the proliferation
